Like-named read-outs stand apart in the source and are kept apart here. Bridge positions count the residues as written; N and C are the ends. Ends that are not written are not given here. Peptide text beside a SMILES is read from it.
How the values were obtained:
E. coli W3110 = experiment: Surface-localized antimicrobial display (SLAY), log2 fold change in reads; format: cell-based, Escherichia coli; conditions: 3 h 37°C; for l2FC_IPTG_15: induced (15 μM IPTG, low induction) vs uninduced; for l2FC_IPTG_100: induced (100 μM IPTG, high induction) vs uninduced
Experimental: SLAY procedures have been detailed previously ([25], [26]). Briefly, 100 μl of E. coli W3110 frozen cells containing the pooled SynCH plasmid library were recovered in 10 ml of LB supplemented with carbenicillin (75 μg/ml) for 2 hours. The culture was then back-diluted to an OD of 0.05, and three triplicate 5-ml cultures were set up in LB supplemented with carbenicillin (75 μg/ml). Triplicate reactions included uninduced (0 μM IPTG), low induction (15 μM IPTG), and high induction (100 μM IPTG). All triplicate cultures were then grown for 3 hours at 37°C. Plasmids from each triplicate culture were isolated via Miniprep, and Illumina sequencing primers (see table S6) were used to produce an amplicon via PCR from plasmids from each culture containing a unique i7 barcode identifier. Amplicons were then gel extracted, cleaned, concentrated, and sent to Genewiz for next-generation sequencing by Illumina HiSeq technology with 30% added Phi-X DNA.
Methods of SLAY analysis have been previously described elsewhere. Here, raw sequencing reads were trimmed of adapter sequences using Flexbar ([30]) and then assessed for quality via FastQC ([31]). Next, trimmed reads were mapped to a reference derived from all possible SynCH sequences using Kallisto ([32]). Last, log2 fold change estimates and other relevant statistics were calculated using DESeq2 ([33]).

[1] = system: Acinetobacter baumannii AB5075; conditions: for AB5075 MIC FBS: 100% fetal bovine serum; for AB5075 MIC MH: Mueller-Hinton
[2] = system: Single-donor human red blood cells; experiment: Hemolysis assay; format: cell-based; conditions: hemolysis at 128 µg/ml, fold change relative to SySA-5
Summary of the method: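 Peptides at 300 μg/ml (SySA library) or 128 μg/ml (SySA-5 optimization library) were incubated in triplicate with washed single-donor RBCs (1 × 10^9 cells/ml) for 3 h at 37 °C. Supernatant A540 was background-normalized to PBS and expressed relative to 1% Triton X-100 (100% hemolysis).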

Escherichia coli W3110 = format: cell-based; conditions: for Ec W3110 MIC MH: E. coli W3110, MH medium; for W3110 MIC MHII: E. coli W3110, MHII medium; for Ec W3110 MIC RPMI: E. coli W3110, RPMI medium
[3] = High-resolution LC-MS, percentage with intramolecular disulfide bond (%S-S); format: physicochemical
Experimental: Stock peptides were diluted into PBS (pH 7.4) at 0.1 mg/ml in a volume of 150 μl and placed into 2-ml autosampler vials with small volume inserts (Fisherbrand, 03-391-8). Samples were separated by a C8 LC column, and an extracted ion chromatogram was generated for the most prevalent charge state isotopes. Mass spectra were generated for each extracted LC peak using an Agilent Technologies 6546 Accurate Mass quadrupole orthogonal acceleration–time-of-flight LC-MS instrument. Analysis was performed using Agilent MassHunter Qualitative software v10. The isotope distribution for each LC peak from each sample was compared to predicted distributions created using Agilent’s Isotope Distribution Calculator. Percentages of molecules with disulfide bonds was determined by comparing the area under the curve for each LC peak containing a disulfide bond over the total area of all relevant peaks (sum area %) and reported as a mean of three technical replicates ± 1 SD.

Row | Molecule | l2FC_IPTG_15 (E. coli W3110) | l2FC_IPTG_100 (E. coli W3110) | AB5075 MIC FBS ([1]; replicate 1) [µg/mL] | AB5075 MIC FBS ([1]; replicate 2) [µg/mL] | AB5075 MIC FBS ([1]; replicate 3) [µg/mL] | AB5075 MIC MH ([1]; replicate 1) [µg/mL] | AB5075 MIC MH ([1]; replicate 2) [µg/mL] | AB5075 MIC MH ([1]; replicate 3) [µg/mL] | Fold Change Hemolysis [2] | further results
1 | CLRIRVNDRRRGVKITLEVC (disulfide 1-20 (inferred)) | 0.457 | 0.630 |  |  |  |  |  |  |  | 
2 | CC(C)C[C@@H]1NC(=O)[C@H](CCCNC(=N)N)NC(=O)[C@H](C(C)C)NC(=O)[C@@H]2CSSC[C@H](NC(=O)[C@H](CC(C)C)NC(=O)[C@H](CCCNC(=N)N)NC(=O)[C@H](C(C)C)NC(=O)[C@H](CCCNC(=N)N)NC(=O)[C@H](CC(C)C)NC(=O)[C@@H](N)CSSC[C@@H](C(=O)O)NC(=O)[C@H](C(C)C)NC(=O)[C@H](CCCNC(=N)N)NC1=O)C(=O)N[C@@H](CCCNC(=N)N)C(=O)N[C@@H](CCCNC(=N)N)C(=O)N[C@@H](CCCNC(=N)N)C(=O)N2 [SySA-5.22] (H-CLRVRLCRRRCVRLRVC-OH; disulfide 1-17, 7-11 (inferred); N-terminus and C-terminus assumed) |  |  | 64 | 64 | 64 | 32 | 8 | 32 | 2.1 | 
3 | CC(C)C[C@@H]1NC(=O)[C@H](CO)NC(=O)[C@H](C(C)C)NC(=O)[C@H](CCCCN)NC(=O)[C@@H]2CSSC[C@H](NC(=O)[C@H](CCCNC(=N)N)NC(=O)[C@H](CC(C)C)NC(=O)[C@H](CCCNC(=N)N)NC(=O)[C@H](C(C)C)NC(=O)[C@H](CCCNC(=N)N)NC(=O)[C@@H](N)CSSC[C@@H](C(=O)O)NC(=O)[C@H](CCCNC(=N)N)NC1=O)C(=O)N[C@@H](CCCNC(=N)N)C(=O)N[C@@H](CCCNC(=N)N)C(=O)NCC(=O)N[C@@H](CCCNC(=N)N)C(=O)N2 [SySA-5.16] (H-CRVRLRCRRGRCKVSLRC-OH; disulfide 1-18, 7-12 (inferred); N-terminus and C-terminus assumed) |  |  | >128 | >128 | >128 | 32 | 64 | 32 | 1.3 | 
4 | CRIKINIDDRGGTVKLEVQC (disulfide 1-20 (inferred)) | -0.180 | -0.210 |  |  |  |  |  |  |  | 
5 | CVTIRVDNGGGGLRITLQVC (disulfide 1-20 (inferred)) | -0.299 | 0.025 |  |  |  |  |  |  |  | 
6 | CC(C)C[C@@H]1NC(=O)CNC(=O)[C@H](CCCNC(=N)N)NC(=O)[C@H](CCCNC(=N)N)NC(=O)[C@H](CCCNC(=N)N)NC(=O)[C@H](CC(N)=O)NC(=O)[C@H](CC(N)=O)NC(=O)[C@H](CC(C)C)NC(=O)[C@H](CCCNC(=N)N)NC(=O)[C@H](C(C)C)NC(=O)[C@H](CCCNC(=N)N)NC(=O)[C@H](C(C)C)NC(=O)[C@@H](N)CSSC[C@@H](C(=O)O)NC(=O)[C@H](C(C)C)NC(=O)[C@H](CCC(N)=O)NC(=O)[C@H](CC(C)C)NC(=O)[C@H](CO)NC(=O)[C@H](C(C)C)NC(=O)[C@H](CCCNC(=N)N)NC1=O [SySA-29] (H-CVRVRLNNRRRGLRVSLQVC-OH; disulfide 1-20; N-terminus and C-terminus assumed) |  |  |  |  |  |  |  |  |  | Ec W3110 MIC MH (Escherichia coli W3110): 16 µg/mL; W3110 MIC MHII (Escherichia coli W3110): > 128 µg/mL; Ec W3110 MIC RPMI (Escherichia coli W3110): 8 µg/mL; W3110 MIC MH (Escherichia coli W3110): 16 µg/mL; W3110 MIC RPMI (Escherichia coli W3110): 8 µg/mL; %S-S [3]: 100%
7 | CC(C)C[C@@H]1NC(=O)[C@H](CCCNC(=N)N)NC(=O)[C@H](C(C)C)NC(=O)[C@H](CCCCN)NC(=O)[C@H](CCCNC(=N)N)NC(=O)[C@H](CCCNC(=N)N)NC(=O)[C@H](CCCNC(=N)N)NC(=O)[C@H](CCCNC(=N)N)NC(=O)[C@H](CCCNC(=N)N)NC(=O)[C@H](CC(C)C)NC(=O)[C@H](CCCNC(=N)N)NC(=O)[C@H](C(C)C)NC(=O)[C@H](CCCNC(=N)N)NC(=O)[C@H](CC(C)C)NC(=O)[C@@H](N)CSSC[C@@H](C(=O)O)NC(=O)[C@H](C(C)C)NC(=O)[C@H](CCCNC(=N)N)NC1=O [SySA-5.12] (H-CLRVRLRRRRRKVRLRVC-OH; disulfide 1-18) |  |  |  |  |  |  |  |  | 3.7 | AB5075 MIC FBS ([1]; median of triplicate): > 128 µg/mL; AB5075 MIC MH ([1]; median of triplicate): 4 µg/mL
8 | CC(C)C[C@@H]1NC(=O)[C@H](CCCNC(=N)N)NC(=O)[C@H](C(C)C)NC(=O)[C@H](CCCCN)NC(=O)[C@H](C(C)C)NC(=O)[C@@H]2CSSC[C@H](NC(=O)[C@H](CC(C)C)NC(=O)[C@H](CCCNC(=N)N)NC(=O)[C@H](C(C)C)NC(=O)[C@H](CCCNC(=N)N)NC(=O)[C@@H](N)CSSC[C@@H](C(=O)O)NC(=O)[C@H](CCCNC(=N)N)NC1=O)C(=O)N[C@@H](CCCNC(=N)N)C(=O)N[C@@H](CCCNC(=N)N)C(=O)N[C@@H](CCCNC(=N)N)C(=O)N[C@@H](CCCNC(=N)N)C(=O)N2 [SySA-5.9] (H-CRVRLCRRRRCVKVRLRC-OH; disulfide 1-18, 6-11 (inferred); N-terminus and C-terminus assumed) |  |  | >128 | >128 | >128 | 8 | 8 | 8 | 0.6 | 
9 | CC(C)C[C@@H]1NC(=O)[C@H](CO)NC(=O)[C@H](C(C)C)NC(=O)[C@H](CCCCN)NC(=O)[C@H](C(C)C)NC(=O)[C@H](CCCNC(=N)N)NC(=O)[C@H](CCCNC(=N)N)NC(=O)[C@H](CCCNC(=N)N)NC(=O)CNC(=O)[C@H](CC(N)=O)NC(=O)[C@H](CC(N)=O)NC(=O)[C@H](CC(C)C)NC(=O)[C@H](CCCNC(=N)N)NC(=O)[C@H](C(C)C)NC(=O)[C@H](CCCNC(=N)N)NC(=O)[C@H](C(C)C)NC(=O)[C@@H](N)CSSC[C@@H](C(=O)O)NC(=O)[C@H](C(C)C)NC(=O)[C@H](CCC(N)=O)NC1=O [SySA-26] (H-CVRVRLNNGRRRVKVSLQVC-OH; disulfide 1-20; N-terminus and C-terminus assumed) |  |  |  |  |  |  |  |  |  | Ec W3110 MIC MH (Escherichia coli W3110): 16 µg/mL; W3110 MIC MHII (Escherichia coli W3110): > 128 µg/mL; Ec W3110 MIC RPMI (Escherichia coli W3110): 16 µg/mL; W3110 MIC MH (Escherichia coli W3110): 16 µg/mL; W3110 MIC RPMI (Escherichia coli W3110): 16 µg/mL; %S-S [3]: 100%
10 | CLRIRVDDRRRRVRITLQVC (disulfide 1-20 (inferred)) | 0.055 | 0.322 |  |  |  |  |  |  |  | 
11 | CC(C)C[C@@H]1NC(=O)[C@H](CCCNC(=N)N)NC(=O)[C@H](C(C)C)NC(=O)[C@@H]2CSSC[C@H](NC(=O)[C@H](CC(C)C)NC(=O)[C@H](CCCNC(=N)N)NC(=O)[C@H](C(C)C)NC(=O)[C@H](CCCNC(=N)N)NC(=O)[C@H](CC(C)C)NC(=O)[C@@H](N)CSSC[C@@H](C(=O)O)NC(=O)[C@H](C(C)C)NC(=O)[C@H](CCCNC(=N)N)NC1=O)C(=O)N[C@@H](CCCNC(=N)N)C(=O)N[C@@H](CCCNC(=N)N)C(=O)N[C@@H](CCCNC(=N)N)C(=O)N[C@@H](CCCNC(=N)N)C(=O)N2 [SySA-5.14] (H-CLRVRLCRRRRCVRLRVC-OH; disulfide 1-18, 7-12 (inferred); N-terminus and C-terminus assumed) |  |  | 64 | 64 | 64 | 8 | 4 | 4 | 5.6 | 
12 | CRIKIDVDDGRRRVRLELQC (disulfide 1-20 (inferred)) | 0.041 | 0.249 |  |  |  |  |  |  |  | 

From publication PMC9833666, “Designing and identifying β-hairpin peptide macrocycles with antibiotic potential” (Science Advances, 2023)
